Here are results for 7 molecules from BindingDB's records for patent US20250282798 (Medshine Discovery, 2025).

Mitogen-activated protein kinase kinase kinase kinase 1, sequence (Q92918 whole entry): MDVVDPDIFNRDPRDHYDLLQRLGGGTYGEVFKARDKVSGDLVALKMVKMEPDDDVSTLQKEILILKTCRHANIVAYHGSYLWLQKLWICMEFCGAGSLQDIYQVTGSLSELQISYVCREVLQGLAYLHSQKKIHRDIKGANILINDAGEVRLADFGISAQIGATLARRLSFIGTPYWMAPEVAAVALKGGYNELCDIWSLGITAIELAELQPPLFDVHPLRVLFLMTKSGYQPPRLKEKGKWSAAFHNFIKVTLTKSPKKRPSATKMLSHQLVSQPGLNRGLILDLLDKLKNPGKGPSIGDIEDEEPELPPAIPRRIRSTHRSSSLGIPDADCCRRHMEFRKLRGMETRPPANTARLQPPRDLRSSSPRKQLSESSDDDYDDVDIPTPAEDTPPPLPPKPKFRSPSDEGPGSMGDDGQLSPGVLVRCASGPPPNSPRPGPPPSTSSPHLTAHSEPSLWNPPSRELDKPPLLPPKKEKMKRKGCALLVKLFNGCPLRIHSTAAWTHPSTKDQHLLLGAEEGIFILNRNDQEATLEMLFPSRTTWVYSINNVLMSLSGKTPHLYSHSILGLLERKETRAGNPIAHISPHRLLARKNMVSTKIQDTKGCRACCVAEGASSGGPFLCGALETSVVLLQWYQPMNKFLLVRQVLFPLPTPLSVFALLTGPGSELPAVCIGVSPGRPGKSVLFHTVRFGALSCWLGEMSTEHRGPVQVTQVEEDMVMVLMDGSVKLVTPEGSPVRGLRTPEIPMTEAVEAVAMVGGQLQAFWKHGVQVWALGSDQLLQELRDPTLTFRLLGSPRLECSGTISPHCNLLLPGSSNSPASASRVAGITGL

The experiment addresses Mitogen-activated protein kinase kinase kinase kinase 1 (Homo sapiens, UniProt Q92918). In words: Kinase Activity Assay. As for the experimental part:
The compound was diluted 50-fold into the kinase reaction buffer, and the mixture was shaken on a shaker for 20 minutes. The kinase was prepared with the enzyme reaction buffer. 2 μL of kinase was added to each well of a reaction plate. 1 μL of the diluted compound in the buffer was added to each well. The plate was sealed with a sealing film, centrifuged at 1000 g for 30 seconds, and placed at room temperature for 10 minutes. The mixed solution of ATP/MBP was prepared with the enzyme reaction buffer. 2 μL of the mixed solution of ATP/MBP was added to the reaction plate. The plate was sealed with a sealing film, and centrifuged at 1000 g for 30 seconds. The mixture in the plate was reacted at room temperature for 60 minutes. […] The plate was incubated at 25° C. for 40 min. […] The plate was incubated at 25° C. for 40 min. The RLU (relative luminescence unit) signal was read with a BMG microplate reader, and the signal intensity was used to characterize the activity of the kinase.
In general, IC50 refers to the concentration needed to halve the response being measured. Read a low IC50 as greater potency in that assay. Consider `COc1cccc(F)c1-c1ccc(Nc2ccc(N3CCOCC3)c(CN(C)C)n2)c2c1CNC2=O` [US20250282798, Compound 15], for which the IC50 is 1700 pM.

In the case of `CN1Cc2nc(Nc3ccc(-c4cnc5cc(F)ccn45)c4c3C(=O)NC4)ccc2N2CCOCC2C1` (configuration not stated) [US20250282798, Compound 16], inhibition was half-maximal at 800 pM (IC50).

Molecule `CN1Cc2nc(Nc3ccc(-c4cnc5cc(F)ccn45)c4c3C(=O)NC4)ccc2C2COCC2C1` (configuration not stated) [US20250282798, Compound 17] gave an IC50 of 1300 pM.

As to `O=C1NCc2c(-c3cnc4cc(F)ccn34)ccc(Nc3ccc4c(n3)CNC(=O)C3COCC43)c21` (configuration not stated) [US20250282798, Compound 18], half-maximal inhibition (IC50) required 200 pM.

In the case of `Cn1ccc2c(-c3ncc(Nc4ccc5c(n4)OC[C@H]4COCCN54)c4c3CNC4=O)ccnc21` [US20250282798, Compound 20], the midpoint of inhibition, the IC50, lay at 300 pM. This IC50 lies about 1.5-fold higher than the previous one.

`Cn1ccc2c(-c3ccc(Nc4ccc5c(n4)CNC(=O)C4COCC54)c4c3CNC4=O)ccnc21` (configuration not stated) [US20250282798, Compound 23] displayed an IC50 of 20 pM.

As to `CN1Cc2nc(Nc3ccc(-c4ccnc5c4ccn5C)c4c3C(=O)NC4)ccc2N2CCOCC2C1` (configuration not stated) [US20250282798, Compound 25], 200 pM corresponded to half-maximal inhibition (IC50).
